{
  "source": "patent US10544153B2",
  "about": "“Benzoic acid, benzoic acid derivatives and heteroaryl carboxylic acid conjugates of oxycodone, prodrugs, methods of making and use thereof” (KemPharm, Inc., priority 2014, dated 2020)",
  "key": {"[1]": {"assay": "Tamper resistance: percent of OC released under tampering conditions, LC-MS/MS", "format": "physicochemical", "conditions": "RT", "experimental": "Effective abuse deterrent forms of drugs of abuse can also be resistant to chemical tampering. The prodrugs in the present technology also impart this characteristic. Several common tampering scenarios were employed and percent of OC released were determined by liquid chromatography with tandem mass spectrometry (LC-MS/MS). The results as shown in Table 7 indicated a very high degree of tamper resistance in the example OC prodrugs, releasing little to no OC."}, "[2]": {"assay": "Oral PK in rats: plasma concentrations of released oxycodone by LC-MS/MS", "conditions": "for AUC / Cmax / tmax: conjugate equivalent to 2 mg/kg freebase oxycodone; for %-AUC of OC / %-Cmax of OC / %-tmax of OC: relative to oxycodone (OC)"}, "[3]": {"assay": "Intranasal PK in rats (Table 4)", "conditions": "title: oxymorphone released (released oxycodone); for Cmax / tmax: equivalent to 2 mg/kg freebase oxycodone; for %-Cmax of OC / %-tmax of OC: relative to oxycodone (OC)"}, "[4]": {"assay": "Intranasal PK in rats: plasma concentrations of released oxymorphone by LC-MS/MS", "conditions": "for AUC / Cmax / tmax: Table 6, equivalent to 2 mg/kg freebase oxycodone; for %-AUC of OC / %-Cmax of OC / %-tmax of OC: Table 6, relative to oxycodone (OC)"}, "[5]": {"assay": "Oral PK in rats: plasma concentrations of oxymorphone by LC-MS/MS", "conditions": "oxymorphone released; for AUC / Cmax / tmax: conjugate equivalent to 2 mg/kg freebase oxycodone; for %-AUC of OC / %-Cmax of OC / %-tmax of OC: relative to oxycodone (OC)"}},
  "data": [
    {"smiles": "COc1ccc2c3c1O[C@H]1C(OC(=O)/C=C/c4ccccc4)=CC[C@@]4(O)[C@@H](C2)N(C)CC[C@]314", "note": "[6-Cinnamate-OC]", "values": [
      {"measurement": "percent of OC released", "setting": "[1]; 1N HCl, 1 hour", "result": 0, "unit": "%"},
      {"measurement": "percent of OC released", "setting": "[1]; 5% Bicarbonate, 1 hour", "result": "<1", "unit": "%"},
      {"measurement": "percent of OC released", "setting": "[1]; Water, 1 hour", "result": 0, "unit": "%"},
      {"measurement": "percent of OC released", "setting": "[1]; Water, 24 hours", "result": 0, "unit": "%"},
      {"measurement": "AUC", "setting": "[2]", "result": 55.9, "unit": "ng·h/mL"},
      {"measurement": "Cmax", "setting": "[2]", "result": 35.5, "unit": "ng/mL"},
      {"measurement": "tmax", "setting": "[2]", "result": 18, "unit": "min"},
      {"measurement": "%-AUC of OC", "setting": "[2]", "result": 60, "unit": "%"},
      {"measurement": "%-Cmax of OC", "setting": "[2]", "result": 56, "unit": "%"},
      {"measurement": "%-tmax of OC", "setting": "[2]", "result": 32, "unit": "%"},
      {"measurement": "Cmax", "setting": "[3]", "result": 497.2, "unit": "ng/mL"},
      {"measurement": "tmax", "setting": "[3]", "result": 4.98, "unit": "min"},
      {"measurement": "%-Cmax of OC", "setting": "[3]", "result": 22, "unit": "%"},
      {"measurement": "%-tmax of OC", "setting": "[3]", "result": 100, "unit": "%"},
      {"measurement": "AUC", "setting": "[4]", "result": 1.7, "unit": "ng·h/mL"},
      {"measurement": "Cmax", "setting": "[4]", "result": 2.4, "unit": "ng/mL"},
      {"measurement": "tmax", "setting": "[4]", "result": 30, "unit": "min"},
      {"measurement": "%-AUC of OC", "setting": "[4]", "result": 18, "unit": "%"},
      {"measurement": "%-Cmax of OC", "setting": "[4]", "result": 18, "unit": "%"},
      {"measurement": "%-tmax of OC", "setting": "[4]", "result": 133, "unit": "%"},
      {"measurement": "AUC", "setting": "[5]", "result": 9.2, "unit": "ng·h/mL"},
      {"measurement": "Cmax", "setting": "[5]", "result": 4.3, "unit": "ng/mL"},
      {"measurement": "tmax", "setting": "[5]", "result": 21, "unit": "min"},
      {"measurement": "%-AUC of OC", "setting": "[5]", "result": 91, "unit": "%"},
      {"measurement": "%-Cmax of OC", "setting": "[5]", "result": 68, "unit": "%"},
      {"measurement": "%-tmax of OC", "setting": "[5]", "result": 40, "unit": "%"}
    ]},
    {"smiles": "COc1ccc(C(=O)OC2=CC[C@@]3(O)[C@H]4Cc5ccc(OC)c6c5[C@@]3(CCN4C)[C@H]2O6)cc1", "note": "[Conjugate 4-MeO-Bz-OC]", "values": [
      {"measurement": "percent of OC released", "setting": "[1]; 1N HCl, 1 hour", "result": "<1", "unit": "%"},
      {"measurement": "percent of OC released", "setting": "[1]; 5% Bicarbonate, 1 hour", "result": "<1", "unit": "%"},
      {"measurement": "percent of OC released", "setting": "[1]; Water, 1 hour", "result": 0, "unit": "%"},
      {"measurement": "percent of OC released", "setting": "[1]; Water, 24 hours", "result": "<1", "unit": "%"},
      {"measurement": "AUC", "setting": "[2]", "result": 55.5, "unit": "ng·h/mL"},
      {"measurement": "Cmax", "setting": "[2]", "result": 28.5, "unit": "ng/mL"},
      {"measurement": "tmax", "setting": "[2]", "result": 15, "unit": "min"},
      {"measurement": "%-AUC of OC", "setting": "[2]", "result": 59, "unit": "%"},
      {"measurement": "%-Cmax of OC", "setting": "[2]", "result": 61, "unit": "%"},
      {"measurement": "%-tmax of OC", "setting": "[2]", "result": 33, "unit": "%"},
      {"measurement": "Cmax", "setting": "[3]", "result": 949.4, "unit": "ng/mL"},
      {"measurement": "tmax", "setting": "[3]", "result": 4.98, "unit": "min"},
      {"measurement": "%-Cmax of OC", "setting": "[3]", "result": 48, "unit": "%"},
      {"measurement": "%-tmax of OC", "setting": "[3]", "result": 100, "unit": "%"},
      {"measurement": "AUC", "setting": "[4]", "result": 7.2, "unit": "ng·h/mL"},
      {"measurement": "Cmax", "setting": "[4]", "result": 9.4, "unit": "ng/mL"},
      {"measurement": "tmax", "setting": "[4]", "result": 22, "unit": "min"},
      {"measurement": "%-AUC of OC", "setting": "[4]", "result": 65, "unit": "%"},
      {"measurement": "%-Cmax of OC", "setting": "[4]", "result": 60, "unit": "%"},
      {"measurement": "%-tmax of OC", "setting": "[4]", "result": 105, "unit": "%"},
      {"measurement": "AUC", "setting": "[5]", "result": 6.7, "unit": "ng·h/mL"},
      {"measurement": "Cmax", "setting": "[5]", "result": 4.7, "unit": "ng/mL"},
      {"measurement": "tmax", "setting": "[5]", "result": 15, "unit": "min"},
      {"measurement": "%-AUC of OC", "setting": "[5]", "result": 51, "unit": "%"},
      {"measurement": "%-Cmax of OC", "setting": "[5]", "result": 63, "unit": "%"},
      {"measurement": "%-tmax of OC", "setting": "[5]", "result": 83, "unit": "%"}
    ]},
    {"smiles": "COc1ccc2c3c1O[C@H]1C(OC(=O)c4ccc(O)cc4)=CC[C@@]4(O)[C@@H](C2)N(C)CC[C@]314", "note": "[Conjugate 4-OH-Bz-OC]", "values": [
      {"measurement": "percent of OC released", "setting": "[1]; 1N HCl, 1 hour", "result": 0, "unit": "%"},
      {"measurement": "percent of OC released", "setting": "[1]; 5% Bicarbonate, 1 hour", "result": 0, "unit": "%"},
      {"measurement": "percent of OC released", "setting": "[1]; Water, 1 hour", "result": 0, "unit": "%"},
      {"measurement": "percent of OC released", "setting": "[1]; Water, 24 hours", "result": 0, "unit": "%"},
      {"measurement": "AUC", "setting": "[2]", "result": 53.5, "unit": "ng·h/mL"},
      {"measurement": "Cmax", "setting": "[2]", "result": 35.4, "unit": "ng/mL"},
      {"measurement": "tmax", "setting": "[2]", "result": 45, "unit": "min"},
      {"measurement": "%-AUC of OC", "setting": "[2]", "result": 58, "unit": "%"},
      {"measurement": "%-Cmax of OC", "setting": "[2]", "result": 69, "unit": "%"},
      {"measurement": "%-tmax of OC", "setting": "[2]", "result": 188, "unit": "%"},
      {"measurement": "Cmax", "setting": "[3]", "result": 759.2, "unit": "ng/mL"},
      {"measurement": "tmax", "setting": "[3]", "result": 4.98, "unit": "min"},
      {"measurement": "%-Cmax of OC", "setting": "[3]", "result": 41, "unit": "%"},
      {"measurement": "%-tmax of OC", "setting": "[3]", "result": 100, "unit": "%"},
      {"measurement": "AUC", "setting": "[4]", "result": 11.8, "unit": "ng·h/mL"},
      {"measurement": "Cmax", "setting": "[4]", "result": 19.0, "unit": "ng/mL"},
      {"measurement": "tmax", "setting": "[4]", "result": 27, "unit": "min"},
      {"measurement": "%-AUC of OC", "setting": "[4]", "result": 58, "unit": "%"},
      {"measurement": "%-Cmax of OC", "setting": "[4]", "result": 61, "unit": "%"},
      {"measurement": "%-tmax of OC", "setting": "[4]", "result": 90, "unit": "%"},
      {"measurement": "AUC", "setting": "[5]", "result": 3.3, "unit": "ng·h/mL"},
      {"measurement": "Cmax", "setting": "[5]", "result": 2.1, "unit": "ng/mL"},
      {"measurement": "tmax", "setting": "[5]", "result": 15, "unit": "min"},
      {"measurement": "%-AUC of OC", "setting": "[5]", "result": 55, "unit": "%"},
      {"measurement": "%-Cmax of OC", "setting": "[5]", "result": 49, "unit": "%"},
      {"measurement": "%-tmax of OC", "setting": "[5]", "result": 100, "unit": "%"}
    ]}
  ]
}
